Data: patent US20090203726A1, “SUBSTITUTED TETRAHYDROQUINOLINES AS ANTIBACTERIAL AGENTS” (priority 2007, published 2009)
Where two headings read alike, the source gives them in different places.

Tests used:
[1] = target: T1, MurA (EPT E coli) (Escherichia coli, UniProt P0A749); test: Kinetic IC50 assay of MurA inhibition (Malachite Green), EPT E coli; format: biochemical
T1 construct: made in house

[2] = target: MurA (EPT Y pestis) (Yersinia pestis, UniProt Q8ZB56); test: biochemical
[3] = MurA enzyme, E coli, values given as ranges, read-out: IC50 EPT E coli

Chain of MurA (EPT Y pestis) (Q8ZB56 whole entry, looked up): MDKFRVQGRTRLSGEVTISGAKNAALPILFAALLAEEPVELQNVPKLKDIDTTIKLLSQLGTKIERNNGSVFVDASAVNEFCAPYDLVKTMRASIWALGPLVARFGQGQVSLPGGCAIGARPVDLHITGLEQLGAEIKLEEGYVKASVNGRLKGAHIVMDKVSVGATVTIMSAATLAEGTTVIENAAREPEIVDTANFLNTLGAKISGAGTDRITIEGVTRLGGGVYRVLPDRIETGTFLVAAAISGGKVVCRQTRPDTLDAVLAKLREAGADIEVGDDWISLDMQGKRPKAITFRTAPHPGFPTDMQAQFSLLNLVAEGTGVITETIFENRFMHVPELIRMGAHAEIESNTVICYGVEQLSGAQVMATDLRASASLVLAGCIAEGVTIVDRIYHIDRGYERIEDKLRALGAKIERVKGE
T1 sequence (P0A749 whole entry): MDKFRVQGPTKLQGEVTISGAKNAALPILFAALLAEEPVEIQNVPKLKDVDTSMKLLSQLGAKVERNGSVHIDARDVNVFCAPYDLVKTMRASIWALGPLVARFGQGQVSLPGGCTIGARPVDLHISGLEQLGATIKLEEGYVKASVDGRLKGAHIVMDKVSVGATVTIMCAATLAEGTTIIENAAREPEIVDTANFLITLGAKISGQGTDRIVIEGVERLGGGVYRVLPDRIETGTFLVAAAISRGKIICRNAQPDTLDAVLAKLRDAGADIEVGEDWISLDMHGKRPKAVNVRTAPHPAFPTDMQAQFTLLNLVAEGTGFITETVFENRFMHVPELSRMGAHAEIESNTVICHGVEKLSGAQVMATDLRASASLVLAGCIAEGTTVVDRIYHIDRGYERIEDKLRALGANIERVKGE

Compound	IC50 [1, 3]	IC50 [2]	IC50 [1]
N#Cc1cc(COc2cccc3c2NC(C(=O)O)C2CC=CC32)ccc1-c1ccccc1 (stereo not drawn) [Compound 37]	> 200 µM		
COc1ccc(OC(=O)c2cccc3c2NC(C(=O)O)C2CC=CC32)cc1 (stereo not drawn) [Compound 46]	1 to 10 µM		
COc1ccc(NC(=O)c2cccc3c2NC(C(=O)O)C2CC=CC32)cc1 (stereo not drawn) [Compound 14]	> 200 µM		
Cc1ccc(COc2cccc3c2NC(C(=O)O)C2CC=CC32)cc1 (stereo not drawn) [Compound 30]	> 200 µM		
O=C(c1ccccc1)c1ccc(OC(=O)c2cccc3c2NC(C(=O)O)C2CC=CC32)cc1 (stereo not drawn) [Compound 41]	120 to 140 µM	70 to 80 µM	
O=C(O)C1Nc2c(C(=O)N3CCN(c4ccccc4)CC3)cccc2C2C=CCC12 (stereo not drawn) [Compound 10]	> 200 µM		
O=C(O)C1Nc2cc(C(F)(F)F)ccc2C2C=CCC12 (stereo not drawn) [Compound 5]	150 to 200 µM	10 to 30 µM	
CCOC(=O)C1Nc2c(C(=O)Oc3ccc(-c4cccc(C#N)c4)cc3)cccc2C2C=CCC12 (stereo not drawn) [Compound 12]	> 200 µM		
CCOC(=O)C1Nc2c(C(=O)Oc3ccc(-c4ccc(C#N)cc4)cc3)cccc2C2C=CCC12 (stereo not drawn) [Compound 11]	> 200 µM		
CC(C)(C)c1ccc(OCc2cccc3c2NC(C(=O)O)C2CC=CC32)cc1 (stereo not drawn) [Compound 26]	> 200 µM		
O=C(Oc1ccc(-c2ccc(O)cc2)cc1)c1cccc2c1NC(C(=O)O)C1CC=CC21 (stereo not drawn) [Compound 31]	90 to 110 µM	20 to 40 µM	
O=C(O)C1Nc2c(COc3ccccc3)cccc2C2C=CCC12 (stereo not drawn) [Compound 25]	> 200 µM		
CN(C)C(=O)c1ccc(-c2ccc(OC(=O)c3cccc4c3NC(C(=O)O)C3CC=CC43)cc2)cc1 (stereo not drawn) [Compound 35]	> 200 µM		
CN(C)C(=O)c1cccc2c1NC(C(=O)O)C1CC=CC21 (stereo not drawn) [Compound 4]	> 200 µM	80 to 120 µM	
O=C(Oc1ccc(-c2ccc([N+](=O)[O-])cc2)cc1)c1cccc2c1NC(C(=O)O)C1CC=CC21 (stereo not drawn) [Compound 33]	40 to 60 µM	10 to 20 µM	
O=C(Nc1ccc(-c2ccccc2)cc1)c1cccc2c1NC(C(=O)O)C1CC=CC21 (stereo not drawn) [Compound 15]	50 to 100 µM		
O=C(O)C1Nc2c(COc3ccc(-c4ccccc4)cc3)cccc2C2C=CCC12 (stereo not drawn) [Compound 36]	> 200 µM		
O=C(Oc1ccc(-c2ccccc2)cc1[N+](=O)[O-])c1cccc2c1NC(C(=O)O)C1CC=CC21 (stereo not drawn) [Compound 23]		10 to 20 µM	30 to 50 µM
O=C(O)C1Nc2ccc(F)c(Cl)c2C2C=CCC12 (stereo not drawn) [Compound 2]	> 200 µM	10 to 30 µM	
COc1ccc(-c2ccc(N(Cc3cccc4c3NC(C(=O)O)C3CC=CC43)C(C)=O)cc2)cc1 (stereo not drawn) [Compound 50]	150 to 170 µM		
Cc1ccc(OCc2cccc3c2NC(C(=O)O)C2CC=CC32)cc1 (stereo not drawn) [Compound 28]	> 200 µM		
O=C(Oc1cc(Cl)cc(Cl)c1)c1cccc2c1NC(C(=O)O)C1CC=CC21 (stereo not drawn) [Compound 49]	30 to 50 µM	1 to 10 µM	
O=C(Oc1ccc(Cl)cc1)c1cccc2c1NC(C(=O)O)C1CC=CC21 (stereo not drawn) [Compound 45]	160 to 180 µM		

Compound	IC50 [1, 3]	IC50 [2]	IC50 [1]
CC(=O)N(c1ccccc1)c1ccc(OC(=O)c2cccc3c2NC(C(=O)O)C2CC=CC32)cc1 (stereo not drawn) [Compound 42]	40 to 60 µM		
O=C(Oc1ccc(-c2ccc(Cl)cc2)cc1)c1cccc2c1NC(C(=O)O)C1CC=CC21 (stereo not drawn) [Compound 34]	60 to 80 µM	1 to 10 µM	
NC(=O)c1cccc2c1NC(C(=O)O)C1CC=CC21 (stereo not drawn) [Compound 7]	5 to 20 µM	20 to 40 µM	
Cc1ccc(OC(=O)c2cccc3c2NC(C(=O)O)C2CC=CC32)cc1 (stereo not drawn) [Compound 44]	1 to 10 µM	1 to 5 µM	
O=C(O)C1Nc2ccc(F)cc2C2C=CCC12 (stereo not drawn) [Compound 1]	5 to 20 µM	20 to 40 µM	
O=C(O)c1ccc2c(c1)C1C=CCC1C(C(=O)O)N2 (stereo not drawn) [Compound 3]	2 to 40 µM	10 to 30 µM	
O=C(Oc1ccc(-c2ccccc2)cc1)c1cc(Cl)cc2c1NC(C(=O)O)C1CC=CC21 (stereo not drawn) [Compound 40]	30 to 50 µM	5 to 15 µM	
O=C(Oc1ccccc1)c1cccc2c1NC(C(=O)O)C1CC=CC21 (stereo not drawn) [Compound 43]	30 to 50 µM		
O=C(O)C1Nc2c(OCc3ccccc3)cccc2C2C=CCC12 (stereo not drawn) [Compound 29]	> 200 µM		
COc1ccc(-c2ccc(COc3cccc4c3NC(C(=O)O)C3CC=CC43)cc2)cc1 (stereo not drawn) [Compound 38]	> 200 µM		
O=C(Nc1ccccc1)c1cccc2c1NC(C(=O)O)C1CC=CC21 (stereo not drawn) [Compound 9]	> 200 µM		
O=C(Nc1ccc(Cl)cc1)c1cccc2c1NC(C(=O)O)C1CC=CC21 (stereo not drawn) [Compound 13]	> 200 µM		
O=C(Oc1ccc([N+](=O)[O-])cc1)c1cccc2c1NC(C(=O)O)C1CC=CC21 (stereo not drawn) [Compound 48]			180 to 200 µM
CC(C)(C)c1ccc(OC(=O)c2cccc3c2NC(C(=O)O)C2CC=CC32)cc1 (stereo not drawn) [Compound 47]	10 to 20 µM	5 to 15 µM	
O=C(Oc1ccc(-c2ccccc2)cc1Cl)c1cccc2c1NC(C(=O)O)C1CC3OC3C21 (stereo not drawn) [Compound 22]	40 to 60 µM	10 to 30 µM	
O=C(Oc1ccc(-c2ccccc2)cc1Cl)c1cccc2c1NC(C(=O)O)C1CC=CC21 (stereo not drawn) [Compound 21]	30 to 50 µM	5 to 15 µM	
COc1ccc(-c2ccc(OC(=O)c3cccc4c3NC(C(=O)O)C3CC=CC43)cc2)cc1 (stereo not drawn) [Compound 32]	40 to 60 µM	15 to 25 µM	
O=C(Oc1ccc(Oc2ccccc2)cc1)c1cccc2c1NC(C(=O)O)C1CC=CC21 (stereo not drawn) [Compound 39]	50 to 70 µM	10 to 30 µM	
O=C(O)C1Nc2c(COc3ccc(Cl)cc3)cccc2C2C=CCC12 (stereo not drawn) [Compound 27]	> 200 µM		
N#Cc1ccc(-c2ccc(OC(=O)c3cccc4c3NC(C(=O)O)C3CC=CC43)cc2)cc1 (stereo not drawn) [Compound 24]	40 to 60 µM	20 to 30 µM	
CCOC(=O)C1Nc2c(C(=O)Nc3ccccc3)cccc2C2C=CCC12 (stereo not drawn) [Compound 8]	> 200 µM		
CC(=O)Nc1ccc2c(c1)C1C=CCC1C(C(=O)O)N2 (stereo not drawn) [Compound 6]	> 200 µM	50 to 100 µM	
